Results published in paper PMC10141604, “Small-Molecule Inhibition of Androgen Receptor Dimerization as a Strategy against Prostate Cancer” (ACS Central Science, 2023).

Assays:
AR = target: T1, AR (Homo sapiens, UniProt P10275, T878A); assay: AR transcriptional activity assay (LNCaP-ARR2PB-eGFP cells); assay type: cell-based
T1 construct: The cells of LNCaP-ARR2PB-eGFP were; endogenous in cells; host or cells: LNCaP-ARR2PB-eGFP
T1 sequence (P10275 1-920 T878A): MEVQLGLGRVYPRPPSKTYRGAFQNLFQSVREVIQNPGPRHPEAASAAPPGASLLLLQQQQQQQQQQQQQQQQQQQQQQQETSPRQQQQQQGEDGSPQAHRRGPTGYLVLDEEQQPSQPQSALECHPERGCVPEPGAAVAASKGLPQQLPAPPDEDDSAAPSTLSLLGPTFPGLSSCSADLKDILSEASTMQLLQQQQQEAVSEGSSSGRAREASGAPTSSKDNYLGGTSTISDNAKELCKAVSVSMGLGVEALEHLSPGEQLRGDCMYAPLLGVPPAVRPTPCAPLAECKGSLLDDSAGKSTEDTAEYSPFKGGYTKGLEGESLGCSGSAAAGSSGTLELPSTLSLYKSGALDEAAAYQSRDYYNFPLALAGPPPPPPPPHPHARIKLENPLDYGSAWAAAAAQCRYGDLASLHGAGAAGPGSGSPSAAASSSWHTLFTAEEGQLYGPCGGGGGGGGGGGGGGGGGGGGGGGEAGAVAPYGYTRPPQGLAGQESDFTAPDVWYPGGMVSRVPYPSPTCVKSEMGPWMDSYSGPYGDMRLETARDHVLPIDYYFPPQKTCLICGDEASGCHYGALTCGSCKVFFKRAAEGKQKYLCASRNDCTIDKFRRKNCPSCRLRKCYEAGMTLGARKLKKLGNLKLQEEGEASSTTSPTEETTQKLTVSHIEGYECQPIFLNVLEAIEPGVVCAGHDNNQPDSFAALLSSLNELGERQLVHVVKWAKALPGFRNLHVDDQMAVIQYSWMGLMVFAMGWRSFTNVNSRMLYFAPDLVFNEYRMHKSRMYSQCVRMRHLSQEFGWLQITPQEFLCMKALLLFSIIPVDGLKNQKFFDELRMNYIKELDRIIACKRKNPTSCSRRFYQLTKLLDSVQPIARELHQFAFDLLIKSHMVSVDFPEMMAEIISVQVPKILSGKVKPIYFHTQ
Method: University, Hangzhou, China), respectively. […]
AR Transcriptional Activity Assay
The AR transcriptional activities were determined using the constructed LNCaP-ARR2PB-eGFP cell as previously reported.11, 12 The cells of LNCaP-ARR2PB-eGFP were […]
by seeding into a 96 -well plate (3.5× 10^4 cells/well) for 1 day incubation at 37 °C. Then, the cells were treated with 5 nM DHT and various concentrations of compounds (10 μM […]
the fluorescence intensities were determined using a Synergy H1 microplate reader

22RV1 = assay: MTT cell viability assay, 22RV1; assay type: cell-based; conditions: 72 h
Method: (§1) 3-(4,5-dimethythiazol-2-yl)-2,5-diphenyl-2-H-tetrazolium bromide (MTT) colorimetric assay was employed to investigate cell viability. Cells were seeded into 96-well plates with 2-5× 10^3 cells per well (5× 10^3 cells/well for LNCaP, 22RV1, NIH-3T3, GES-1, Chang, […]
(§2) NCI-H1299, U2OS, U87) for 1 day incubation at 37 °C. Then, the cells were treated with various concentrations of compounds (22.86 nM - 50 μM) and incubated for 72 h. Then, 10 μl MTT (5 mg/ml) was added into each well and incubated for 4 h. Afterwards, 100 μl of triplex 10% SDS-0.1% HCl-phosophate-buffered saline (PBS) solutions was added into each well and incubated for overnight. The absorbance at 570 nm was measured (Eon, Bioteck, Winooski, VT). […]

Du145 = assay: MTT cell viability assay, Du145; assay type: cell-based; conditions: 72 h
Method: as §1, §2

FL-AR^F876L/T877A = FL-AR^F876L/T877A (Homo sapiens, UniProt P10275, F877L/T878A); assay: Dual-luciferase reporter assay for FL-AR F876L/T877A in PC3 cells
Chain of FL-AR^F876L/T877A (P10275 whole entry F877L/T878A): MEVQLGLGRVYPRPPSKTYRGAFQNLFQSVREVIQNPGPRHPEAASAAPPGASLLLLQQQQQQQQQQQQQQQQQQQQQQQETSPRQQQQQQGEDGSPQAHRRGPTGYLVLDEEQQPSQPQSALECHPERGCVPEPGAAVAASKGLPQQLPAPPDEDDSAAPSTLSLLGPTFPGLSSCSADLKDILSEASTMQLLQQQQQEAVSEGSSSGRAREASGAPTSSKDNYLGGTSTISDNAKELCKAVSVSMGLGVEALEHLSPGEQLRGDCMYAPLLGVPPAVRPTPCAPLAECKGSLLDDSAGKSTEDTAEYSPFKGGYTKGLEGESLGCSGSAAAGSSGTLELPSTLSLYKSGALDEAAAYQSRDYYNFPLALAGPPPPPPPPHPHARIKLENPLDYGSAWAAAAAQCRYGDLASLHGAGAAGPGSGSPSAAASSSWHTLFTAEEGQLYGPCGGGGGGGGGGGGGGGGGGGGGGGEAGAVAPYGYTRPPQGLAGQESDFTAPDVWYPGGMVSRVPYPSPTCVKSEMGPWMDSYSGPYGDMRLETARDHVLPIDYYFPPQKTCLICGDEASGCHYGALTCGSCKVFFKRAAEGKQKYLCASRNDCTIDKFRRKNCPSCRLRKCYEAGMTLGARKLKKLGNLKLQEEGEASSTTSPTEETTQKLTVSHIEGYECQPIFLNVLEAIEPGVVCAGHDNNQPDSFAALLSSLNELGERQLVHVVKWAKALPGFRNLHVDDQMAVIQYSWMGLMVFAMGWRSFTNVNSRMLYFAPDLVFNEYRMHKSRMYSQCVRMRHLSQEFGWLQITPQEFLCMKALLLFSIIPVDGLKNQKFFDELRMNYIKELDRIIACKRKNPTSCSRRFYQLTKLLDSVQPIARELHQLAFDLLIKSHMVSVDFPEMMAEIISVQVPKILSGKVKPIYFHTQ
Method: Luciferase Reporter Assays for FL -ARF876L and FL-ARF876L/T877A
constructed on the basis of the human full length wild type AR plasmid pCMV -hAR
transfected with 70 ng/well of FL -AR plasmid together with 24 ng of ARR2PB -Luc, and 5 ng of Renilla. After 1 day incubation at 37 °C , the antagonistic models were employed
After another 24 h incubation, the luciferase activities were determined by the Dual -Glo Luciferase system (#E1910, Promega) according to the

CC(=O)Cc1nsc(NC(=O)c2cc(-c3cccc(C(F)(F)F)c3)oc2C)n1 [Compound M17-B15]
IC50 (AR; LNCaP-ARR2PB-eGFP cells, 5 nM DHT, 3 days): 30 ± 10 nM | improvement in AR transcriptional inhibition compared with the original hit M17 (AR; ratio of IC50 values): > 31 fold | inhibition on the cell viability of 22RV1 (22RV1): does not show obvious inhibition | inhibition on the cell viability of Du145 (Du145): does not show obvious inhibition | IC50 (FL-AR^F876L/T877A): 150 nM
